From the supplement of paper PMC11368000 come the findings set out here.

Where only a bound is given, the exact number is not on record here.

The first assay has as its system 1516 (donor line of iPSC-derived cardiomyocytes). Kind of assay: POD (EC10) for decrease in total cell number (cytotoxicity) vs vehicle; higher = less potent (higher point of departure). The note with it: exposure time: 90 min. The procedure: (§1)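 Human iPSC-derived cardiomyocytes from 16 donors were exposed for 90 min at 37 °C to each PFAS at 0.1, 1, 10 and 100 µM in 0.5% DMSO, 384-well plates. Kinetic Ca2+ flux (FLIPR) and Hoechst nuclei counts were normalised to vehicle wells and fitted with a hierarchical Bayesian Hill model to give donor-specific PODs: EC05 for beat-rate increase or decrease and for decay-to-rise ratio increase (QT proxy), EC95 for peak-frequency loss (asystole), EC10 for total cell number loss. 0.03 µM is the lower bound.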
On to `CN(CCO)S(=O)(=O)C(F)(F)C(F)(F)C(F)(F)C(F)(F)C(F)(F)C(F)(F)C(F)(F)C(F)(F)F` [N-Methyl-N-(2-hydroxyethyl)perfluorooctanesulfonamide], for which the POD vs vehicle was over 100 µM.
On to `NC(=O)C(F)(F)C(F)(F)C(F)(F)C(F)(F)C(N)=O` [Octafluoroadipamide], for which the POD vs vehicle is over 100 µM.
The compound `O=C(O)C(F)(F)C(F)(F)C(F)(F)OC(F)(F)F` [Perfluoro(4-methoxybutanoic)_acid] gave a POD vs vehicle of over 100 µM.
Still for that read-out and setting: the result for `O=C(O)C(F)(F)C(F)(F)OC(F)(F)F` [Perfluoro-3-methoxypropanoic_acid] reads over 100 µM; that for `O=C(O)C(F)(F)C(F)(F)C(F)(F)F` [Perfluorobutanoic_acid], over 100 µM; that for `O=C(O)C(F)(F)C(F)(F)C(F)(F)C(F)(F)C(F)(F)C(F)(F)C(F)(F)C(F)(F)C(F)(F)F` [Perfluorodecanoic_acid], over 100 µM.
Same read-out and setting: the result for `NS(=O)(=O)C(F)(F)C(F)(F)C(F)(F)C(F)(F)C(F)(F)C(F)(F)F` [Perfluorohexanesulfonamide] reads 61.1 µM.
`O=S(=O)(O)C(F)(F)C(F)(F)C(F)(F)C(F)(F)C(F)(F)C(F)(F)F` [Perfluorohexanesulfonic_acid] yielded a POD vs vehicle of over 100 µM.
Still for that read-out and setting: the result for `O=C(O)C(F)(F)C(F)(F)C(F)(F)C(F)(F)C(F)(F)F` [Perfluorohexanoic_acid] reads over 100 µM.

A further assay concerns 1518 (donor line of iPSC-derived cardiomyocytes). The assay is described as above. Conditions: exposure time: 90 min. The procedure:
as §1
Consider `O=C(O)CCC(F)(F)C(F)(F)C(F)(F)C(F)(F)C(F)(F)C(F)(F)C(F)(F)F` [3-Perfluoroheptylpropanoic_acid], for which the POD vs vehicle was over 100 µM.
Still for that read-out and setting: the result for `OCCC(F)(F)C(F)(F)C(F)(F)C(F)(F)C(F)(F)C(F)(F)F` [6:2 Fluorotelomer alcohol] reads over 100 µM; that for `O=S(=O)(O)CCC(F)(F)C(F)(F)C(F)(F)C(F)(F)C(F)(F)C(F)(F)F` [6:2 Fluorotelomer sulfonic acid], over 100 µM; that for `OCCC(F)(F)C(F)(F)C(F)(F)C(F)(F)C(F)(F)C(F)(F)C(F)(F)C(F)(F)F` [8:2 Fluorotelomer alcohol], over 100 µM.
Same read-out and setting: the result for `O=S(=O)(O)CCC(F)(F)C(F)(F)C(F)(F)C(F)(F)C(F)(F)C(F)(F)C(F)(F)C(F)(F)F` [8:2 Fluorotelomer sulfonic acid] reads over 100 µM; that for `O=C(O)C(F)(F)C(F)(F)C(F)(F)C(F)(F)C(F)(F)C(F)(F)C(F)(F)C(F)(F)Cl` [9-Chloro-perfluorononanoic_acid], over 100 µM; that for `O=P(O)(O)CCC(F)(F)C(F)(F)C(F)(F)C(F)(F)C(F)(F)C(F)(F)C(F)(F)C(F)(F)F` [((Perfluorooctyl)ethyl)phosphonic_acid], over 100 µM.
Same read-out and setting: the same measure for `OCC(F)(F)C(F)(F)C(F)(F)C(F)(F)C(F)(F)C(F)F` [Dodecafluoroheptanol]: over 100 µM; for `COC(=O)C(F)(F)C(F)(F)OC(F)(C(F)(F)F)C(F)(F)OC(F)=C(F)F` (stereo not given) [Methyl_perfluoro(3-(1-ethenyloxypropan-2-yloxy)propanoate)]: over 100 µM; for `CN(CCO)S(=O)(=O)C(F)(F)C(F)(F)C(F)(F)C(F)(F)C(F)(F)C(F)(F)C(F)(F)C(F)(F)F` [N-Methyl-N-(2-hydroxyethyl)perfluorooctanesulfonamide]: over 100 µM.
`NC(=O)C(F)(F)C(F)(F)C(F)(F)C(F)(F)C(N)=O` [Octafluoroadipamide] yielded a POD vs vehicle of over 100 µM.
The same measure, in the same setting: the same measure for `O=C(O)C(F)(F)C(F)(F)C(F)(F)OC(F)(F)F` [Perfluoro(4-methoxybutanoic)_acid]: over 100 µM; for `O=C(O)C(F)(F)C(F)(F)OC(F)(F)F` [Perfluoro-3-methoxypropanoic_acid]: over 100 µM.
Still for that read-out and setting: the same measure for `O=C(O)C(F)(F)C(F)(F)C(F)(F)F` [Perfluorobutanoic_acid]: over 100 µM; for `O=C(O)C(F)(F)C(F)(F)C(F)(F)C(F)(F)C(F)(F)C(F)(F)C(F)(F)C(F)(F)C(F)(F)F` [Perfluorodecanoic_acid]: 67.6 µM.
Still for that read-out and setting: the same measure for `NS(=O)(=O)C(F)(F)C(F)(F)C(F)(F)C(F)(F)C(F)(F)C(F)(F)F` [Perfluorohexanesulfonamide]: over 100 µM; for `O=S(=O)(O)C(F)(F)C(F)(F)C(F)(F)C(F)(F)C(F)(F)C(F)(F)F` [Perfluorohexanesulfonic_acid]: over 100 µM.
`O=C(O)C(F)(F)C(F)(F)C(F)(F)C(F)(F)C(F)(F)F` [Perfluorohexanoic_acid] gave a POD vs vehicle of over 100 µM.

A further assay relates to 1531 (donor line of iPSC-derived cardiomyocytes). The description is as above. Conditions: exposure time: 90 min. The procedure:
as §1
`O=C(O)CCC(F)(F)C(F)(F)C(F)(F)C(F)(F)C(F)(F)C(F)(F)C(F)(F)F` [3-Perfluoroheptylpropanoic_acid]: the POD vs vehicle was over 100 µM.
In the case of `OCCC(F)(F)C(F)(F)C(F)(F)C(F)(F)C(F)(F)C(F)(F)F` [6:2 Fluorotelomer alcohol], the POD vs vehicle is over 100 µM.
`O=S(=O)(O)CCC(F)(F)C(F)(F)C(F)(F)C(F)(F)C(F)(F)C(F)(F)F` [6:2 Fluorotelomer sulfonic acid]: the POD vs vehicle is over 100 µM.
`OCCC(F)(F)C(F)(F)C(F)(F)C(F)(F)C(F)(F)C(F)(F)C(F)(F)C(F)(F)F` [8:2 Fluorotelomer alcohol]: the POD vs vehicle is over 100 µM.
The same measure, in the same setting: the result for `O=S(=O)(O)CCC(F)(F)C(F)(F)C(F)(F)C(F)(F)C(F)(F)C(F)(F)C(F)(F)C(F)(F)F` [8:2 Fluorotelomer sulfonic acid] reads over 100 µM; that for `O=C(O)C(F)(F)C(F)(F)C(F)(F)C(F)(F)C(F)(F)C(F)(F)C(F)(F)C(F)(F)Cl` [9-Chloro-perfluorononanoic_acid], over 100 µM; that for `O=P(O)(O)CCC(F)(F)C(F)(F)C(F)(F)C(F)(F)C(F)(F)C(F)(F)C(F)(F)C(F)(F)F` [((Perfluorooctyl)ethyl)phosphonic_acid], over 100 µM.
Compound `OCC(F)(F)C(F)(F)C(F)(F)C(F)(F)C(F)(F)C(F)F` [Dodecafluoroheptanol] had a POD vs vehicle of over 100 µM.
The same measure, in the same setting: the result for `COC(=O)C(F)(F)C(F)(F)OC(F)(C(F)(F)F)C(F)(F)OC(F)=C(F)F` (stereo not given) [Methyl_perfluoro(3-(1-ethenyloxypropan-2-yloxy)propanoate)] reads over 100 µM.
The same measure, in the same setting: the same measure for `CN(CCO)S(=O)(=O)C(F)(F)C(F)(F)C(F)(F)C(F)(F)C(F)(F)C(F)(F)C(F)(F)C(F)(F)F` [N-Methyl-N-(2-hydroxyethyl)perfluorooctanesulfonamide]: over 100 µM; for `NC(=O)C(F)(F)C(F)(F)C(F)(F)C(F)(F)C(N)=O` [Octafluoroadipamide]: over 100 µM.
On the same count and under the same terms, the same measure for `O=C(O)C(F)(F)C(F)(F)C(F)(F)OC(F)(F)F` [Perfluoro(4-methoxybutanoic)_acid]: over 100 µM.
Turning to `O=C(O)C(F)(F)C(F)(F)OC(F)(F)F` [Perfluoro-3-methoxypropanoic_acid], the POD vs vehicle is over 100 µM.
The compound `O=C(O)C(F)(F)C(F)(F)C(F)(F)F` [Perfluorobutanoic_acid] gave a POD vs vehicle of over 100 µM.
Same read-out and setting: the same measure for `O=C(O)C(F)(F)C(F)(F)C(F)(F)C(F)(F)C(F)(F)C(F)(F)C(F)(F)C(F)(F)C(F)(F)F` [Perfluorodecanoic_acid]: over 100 µM; for `NS(=O)(=O)C(F)(F)C(F)(F)C(F)(F)C(F)(F)C(F)(F)C(F)(F)F` [Perfluorohexanesulfonamide]: over 100 µM; for `O=S(=O)(O)C(F)(F)C(F)(F)C(F)(F)C(F)(F)C(F)(F)C(F)(F)F` [Perfluorohexanesulfonic_acid]: over 100 µM.
Same read-out and setting: the result for `O=C(O)C(F)(F)C(F)(F)C(F)(F)C(F)(F)C(F)(F)F` [Perfluorohexanoic_acid] reads over 100 µM.
